Measured values as given in ChEMBL document CHEMBL1157320, “Hepatoprotective sesquiterpene glycosides from Sarcandra glabra” (J Nat Prod, 2006).

What was measured:
[1] = Hepatoprotective activity in rat WB-F344 cells assessed as inhibition of D-galactosamine-induced toxicity at 0.1 mM by MTT method relative to control; format: functional
[2] = Cytotoxicity against rat WB-F344 cells assessed as cell survival rate at 0.1 mM by MTT method relative to control; format: cell-based; settings: read-out: Activity

| Compound | inhibition at 100 µM [1] [%] | viability at 100 µM [2] [%] |
| --- | --- | --- |
| C=C1[C@H]2C[C@H]2[C@]2(C)[C@H](O)[C@]3(O[C@@H]4O[C@H](CO)[C@@H](O)[C@H](O)[C@H]4O)OC(=O)C(C)=C3C[C@@H]12 | 26 | 45.5 |
| COC(=O)c1cc(OC)c2c(c1-c1c(CO)cc(OC)c3c1OCO3)OCO2 [BICYCLOL] | 27.4 | 46.6 |
| CC1=C2C[C@@H]3[C@@](C)(C=C2OC1=O)[C@@H]1C[C@@H]1[C@]3(O)CO[C@@H]1O[C@H](CO)[C@@H](O)[C@H](O)[C@H]1O [CHLORANOSIDE A] | 38.2 | 54.5 |
| C=C1CC[C@H](O[C@@H]2O[C@H](CO)[C@@H](O)[C@H](O)[C@H]2O)[C@]2(C)C[C@@H]3OC(=O)C(C)=C3C[C@@H]12 [SARCAGLABOSIDE A] | 28.7 | 47.5 |
| C=C1C=C[C@H](O[C@@H]2O[C@H](CO)[C@@H](O)[C@H](O)[C@H]2O)[C@]2(C)C[C@@H]3OC(=O)C(C)=C3C[C@@H]12 [SARCAGLABOSIDE B] | 65.9 | 74.9 |
| C=C[C@]1(C)C[C@@H]2OC(=O)C(C)=C2C[C@H]1C(=C)CO[C@@H]1O[C@H](CO)[C@@H](O)[C@H](O)[C@H]1O [SARCAGLABOSIDE C] | 36.1 | 53 |
| C=C[C@]1(C)C[C@@H]2OC(=O)C(C)=C2C[C@H]1C(=C)CO[C@@H]1O[C@H](CO[C@@H]2OC[C@](O)(CO)[C@H]2O)[C@@H](O)[C@H](O)[C@H]1O [SARCAGLABOSIDE D] | 27 | 46.3 |
| CC1=C2C/C=C(\CO[C@@H]3O[C@H](CO[C@@H]4OC[C@](O)(CO)[C@H]4O)[C@@H](O)[C@H](O)[C@H]3O)CC/C=C(\C)C[C@@H]2OC1=O [SARCAGLABOSIDE E] | 21.7 | 42.4 |
